Test results reported in the supplement of paper PMC8558673.

Tested on: Escherichia coli K12 ER1821
Assay: log10 surviving fraction N/N0 (CFU/mL relative to untreated control) (log_unit); higher = more bacterial survival (less inactivation)
Experimental: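 E. coli K12 ER1821 (mid-exponential, washed in 250 mM sucrose) was exposed to antibiotic at MIC, 3x, 10x or 30x MIC, given a single 1-ms pulse of 0-20 kV/cm, and incubated with the antibiotic at room temperature for <=1 min, 60 min, 160 min or 24 h before dilution. Survivors were counted as CFU by drop plating after overnight growth at 37 C; the value is log10(N/N0) relative to the untreated control (no antibiotic, no pulse), with 3 replicates on different days.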

CC1(C)S[C@@H]2[C@H](NC(=O)[C@H](N)c3ccccc3)C(=O)N2[C@H]1C(=O)O [ampicillin]
log10 surviving fraction N/N0
Settings | antibiotic concentration 30 ug/mL | antibiotic concentration 90 ug/mL
electric pulse amplitude (kV/cm, single 1-ms pulse): 0, post-pulse incubation time: 24 h | -0.726 | -1.73
electric pulse amplitude (kV/cm, single 1-ms pulse): 0, post-pulse incubation time: 60 min | -0.0801 | -0.135
electric pulse amplitude (kV/cm, single 1-ms pulse): 0, post-pulse incubation time: 160 min | -0.551 | -1.08
electric pulse amplitude (kV/cm, single 1-ms pulse): 0, post-pulse incubation time: <=1 min | -0.0839 | -0.253
electric pulse amplitude (kV/cm, single 1-ms pulse): 5, post-pulse incubation time: 24 h | -1.01 | -1.77
electric pulse amplitude (kV/cm, single 1-ms pulse): 5, post-pulse incubation time: 60 min | -0.411 | -0.494
electric pulse amplitude (kV/cm, single 1-ms pulse): 5, post-pulse incubation time: 160 min | -0.803 | -1.47
electric pulse amplitude (kV/cm, single 1-ms pulse): 5, post-pulse incubation time: <=1 min | -0.112 | -0.305
electric pulse amplitude (kV/cm, single 1-ms pulse): 10, post-pulse incubation time: 24 h | -1.62 | -2.91
electric pulse amplitude (kV/cm, single 1-ms pulse): 10, post-pulse incubation time: 60 min | -1.07 | -1.59
electric pulse amplitude (kV/cm, single 1-ms pulse): 10, post-pulse incubation time: 160 min | -1.64 | -2.22
electric pulse amplitude (kV/cm, single 1-ms pulse): 10, post-pulse incubation time: <=1 min | -0.474 | -0.722
electric pulse amplitude (kV/cm, single 1-ms pulse): 15, post-pulse incubation time: 24 h | -2.66 | -3.79
electric pulse amplitude (kV/cm, single 1-ms pulse): 15, post-pulse incubation time: 60 min | -1.88 | -2.12
electric pulse amplitude (kV/cm, single 1-ms pulse): 15, post-pulse incubation time: 160 min | -2.2 | -2.74
electric pulse amplitude (kV/cm, single 1-ms pulse): 15, post-pulse incubation time: <=1 min | -1.1 | -1.29
electric pulse amplitude (kV/cm, single 1-ms pulse): 20, post-pulse incubation time: 24 h | -3.57 | -4.39
electric pulse amplitude (kV/cm, single 1-ms pulse): 20, post-pulse incubation time: 60 min | -2.46 | -2.71
electric pulse amplitude (kV/cm, single 1-ms pulse): 20, post-pulse incubation time: 160 min | -2.65 | -3.23
electric pulse amplitude (kV/cm, single 1-ms pulse): 20, post-pulse incubation time: <=1 min | -1.34 | -1.45
